In the NIST ThermoML archive (doi:10.1016/j.jct.2018.03.007):

Experiment: xn = mol fraction of the nth substance listed
Details: 100 kPa, Liquid; for speed of sound: Linear variable-path acoustic interferometer; for mass density: Vibrating tube method

CCn1cc[n+](C)c1.O=S(=O)([O-])O [1-ethyl-3-methylimidazolium hydrogen sulfate] + CCO
speed of sound [m/s], Frequency=3 MHz
Details | x1 = 0.0281 | x1 = 0.0878 | x1 = 0.1779 | x1 = 0.3378 | x1 = 0.4731 | x1 = 0.577 | x1 = 0.6689 | x1 = 0.7759 | x1 = 0.8797 | x1 = 1
298.15 K | 1190.1 | 1289.8 | 1416.2 | 1577.8 | 1698.6 | 1780.2 | 1836.4 | 1893.6 | 1943.4 | 1982.8
303.15 K | 1170.6 | 1267.3 | 1393.3 | 1558.4 | 1675.8 | 1755.7 | 1816.2 | 1871.9 | 1922.1 | 1962.9
308.15 K | 1152.1 | 1245.3 | 1370.9 | 1538.6 | 1653 | 1731.4 | 1796 | 1850.2 | 1900.8 | 1943.1
313.15 K | 1132.9 | 1222.8 | 1348 | 1516.6 | 1630.3 | 1707.9 | 1773.8 | 1828.5 | 1879.5 | 1923.2

mass density [kg/m3]
Details | x1 = 0.0281 | x1 = 0.0878 | x1 = 0.1779 | x1 = 0.3378 | x1 = 0.4731 | x1 = 0.577 | x1 = 0.6689 | x1 = 0.7759 | x1 = 0.8797 | x1 = 1
298.15 K | 829.67 | 910.66 | 1007.45 | 1129.95 | 1203.92 | 1248.74 | 1281.87 | 1314.38 | 1340.71 | 1365.75
303.15 K | 825.5 | 906.7 | 1003.74 | 1126.52 | 1200.65 | 1245.56 | 1278.69 | 1311.18 | 1337.51 | 1362.62
308.15 K | 821.28 | 902.7 | 999.98 | 1123.06 | 1197.38 | 1242.38 | 1275.52 | 1308 | 1334.34 | 1359.53
313.15 K | 817 | 898.63 | 996.14 | 1119.54 | 1194.05 | 1239.13 | 1272.31 | 1304.78 | 1331.14 | 1356.41

CCn1cc[n+](C)c1.O=S(=O)([O-])O [1-ethyl-3-methylimidazolium hydrogen sulfate] + C[S+](C)[O-]
speed of sound [m/s], Frequency=2 MHz
Details | x1 = 0.0494 | x1 = 0.1349 | x1 = 0.2377 | x1 = 0.3638 | x1 = 0.5219 | x1 = 0.6517 | x1 = 0.7261 | x1 = 0.8081 | x1 = 0.9182 | x1 = 1
298.15 K | 1530.5 | 1600.5 | 1672.7 | 1746.9 | 1823.3 | 1875.5 | 1902 | 1928.7 | 1961 | 1982.8
303.15 K | 1513.4 | 1582.9 | 1654.4 | 1728.2 | 1804.2 | 1856.1 | 1882.4 | 1909 | 1941.2 | 1962.9
308.15 K | 1495.9 | 1564.8 | 1635.9 | 1709.3 | 1784.9 | 1836.6 | 1862.8 | 1889.3 | 1921.5 | 1943.1
313.15 K | 1478.6 | 1547 | 1617.6 | 1690.5 | 1765.7 | 1817.1 | 1843.2 | 1869.6 | 1901.6 | 1923.2

mass density [kg/m3]
Details | x1 = 0.0494 | x1 = 0.1349 | x1 = 0.2377 | x1 = 0.3638 | x1 = 0.5219 | x1 = 0.6517 | x1 = 0.7261 | x1 = 0.8081 | x1 = 0.9182 | x1 = 1
298.15 K | 1128.82 | 1175.73 | 1219.12 | 1259.43 | 1297.19 | 1320.97 | 1332.42 | 1343.71 | 1357.03 | 1365.75
303.15 K | 1124.11 | 1171.37 | 1214.91 | 1255.51 | 1293.61 | 1317.58 | 1329.14 | 1340.51 | 1353.89 | 1362.62
308.15 K | 1119.4 | 1166.99 | 1210.85 | 1251.66 | 1290.03 | 1314.21 | 1325.9 | 1337.32 | 1350.73 | 1359.53
313.15 K | 1114.68 | 1162.54 | 1206.72 | 1247.85 | 1286.51 | 1310.9 | 1322.64 | 1334.1 | 1347.61 | 1356.41

CCn1cc[n+](C)c1.O=S(=O)([O-])O [1-ethyl-3-methylimidazolium hydrogen sulfate] + CCCO
speed of sound [m/s], Frequency=2 MHz
Details | x1 = 0.0519 | x1 = 0.1097 | x1 = 0.2473 | x1 = 0.3301 | x1 = 0.425 | x1 = 0.5348 | x1 = 0.6634 | x1 = 0.816 | x1 = 0.9035 | x1 = 1
298.15 K | 1272.3 | 1342.3 | 1486.2 | 1561.1 | 1640.8 | 1724.4 | 1808.4 | 1892 | 1937.7 | 1982.8
303.15 K | 1254.7 | 1324 | 1467.1 | 1542 | 1621.3 | 1704.9 | 1788.3 | 1871.6 | 1917.9 | 1962.9
308.15 K | 1237.1 | 1305.9 | 1448.3 | 1522.1 | 1601.4 | 1684.2 | 1767.3 | 1850.6 | 1898.1 | 1943.1
313.15 K | 1219.7 | 1288.1 | 1429.1 | 1502.6 | 1581.7 | 1664.9 | 1747.8 | 1830.1 | 1878.1 | 1923.2

mass density [kg/m3]
Details | x1 = 0.0519 | x1 = 0.1097 | x1 = 0.2473 | x1 = 0.3301 | x1 = 0.425 | x1 = 0.5348 | x1 = 0.6634 | x1 = 0.816 | x1 = 0.9035 | x1 = 1
298.15 K | 859.54 | 918.5 | 1034.63 | 1091.59 | 1147.59 | 1202.62 | 1256.73 | 1310.71 | 1338.05 | 1365.75
303.15 K | 855.59 | 914.64 | 1030.95 | 1088.01 | 1144.15 | 1199.35 | 1253.6 | 1307.54 | 1334.87 | 1362.62
308.15 K | 851.62 | 910.8 | 1027.23 | 1084.39 | 1140.69 | 1196.07 | 1250.5 | 1304.42 | 1331.73 | 1359.53
313.15 K | 847.65 | 906.93 | 1023.51 | 1080.78 | 1137.24 | 1192.77 | 1247.33 | 1301.31 | 1328.62 | 1356.41
